Measurements from PubChem BioAssay (NCI).
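Assay format: 96-well plates, 48-hour exposure. GI50: concentration for 50% inhibition of growth. TGI: total growth inhibition.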

Key:
Assay in all cases: growth of human tumour cells (NCI), 48 h
LOX IMVI melanoma = tested on: LOX IMVI melanoma
CCRF-CEM leukemia = tested on: CCRF-CEM leukemia
OVCAR-3 ovarian = tested on: OVCAR-3 ovarian
SK-MEL-2 melanoma = tested on: SK-MEL-2 melanoma
HOP-92 NSCLC = tested on: HOP-92 NSCLC
OVCAR-8 ovarian = tested on: OVCAR-8 ovarian
HCT-15 colon = tested on: HCT-15 colon
HCC-2998 colon = tested on: HCC-2998 colon
CAKI-1 renal = tested on: CAKI-1 renal
KM12 colon = tested on: KM12 colon
HL-60(TB) leukemia = tested on: HL-60(TB) leukemia
DU-145 prostate = tested on: DU-145 prostate
HS 578T breast = tested on: HS 578T breast
A549 NSCLC = tested on: A549 NSCLC
OVCAR-4 ovarian = tested on: OVCAR-4 ovarian
MCF7 breast = tested on: MCF7 breast
PC-3 prostate = tested on: PC-3 prostate
HT29 colon = tested on: HT29 colon
SK-OV-3 ovarian = tested on: SK-OV-3 ovarian
SF-268 CNS = tested on: SF-268 CNS
COLO 205 colon = tested on: COLO 205 colon
MDA-MB-231 breast = tested on: MDA-MB-231 breast
SR leukemia = tested on: SR leukemia
NCI-H522 lung = tested on: NCI-H522 lung
SNB-75 CNS = tested on: SNB-75 CNS
SF-295 CNS = tested on: SF-295 CNS
ACHN renal = tested on: ACHN renal
NCI/ADR-RES ovarian = tested on: NCI/ADR-RES ovarian
HCT-116 colon = tested on: HCT-116 colon
IGROV1 ovarian = tested on: IGROV1 ovarian
NCI-H23 lung = tested on: NCI-H23 lung
MDA-MB-435 = tested on: MDA-MB-435
HOP-62 NSCLC = tested on: HOP-62 NSCLC
T-47D breast = tested on: T-47D breast
UACC-257 melanoma = tested on: UACC-257 melanoma
RPMI-8226 leukemia = tested on: RPMI-8226 leukemia
786-0 renal = tested on: 786-0 renal
OVCAR-5 ovarian = tested on: OVCAR-5 ovarian
A498 renal = tested on: A498 renal
M14 melanoma = tested on: M14 melanoma
SF-539 CNS = tested on: SF-539 CNS
SK-MEL-28 melanoma = tested on: SK-MEL-28 melanoma
BT-549 breast = tested on: BT-549 breast
SN12C renal = tested on: SN12C renal
MALME-3M melanoma = tested on: MALME-3M melanoma
SK-MEL-5 melanoma = tested on: SK-MEL-5 melanoma
U251 CNS = tested on: U251 CNS
NCI-H460 lung = tested on: NCI-H460 lung
UO-31 renal = tested on: UO-31 renal
EKVX NSCLC = tested on: EKVX NSCLC
SW-620 colon = tested on: SW-620 colon
MOLT-4 leukemia = tested on: MOLT-4 leukemia
UACC-62 melanoma = tested on: UACC-62 melanoma
RXF 393 renal = tested on: RXF 393 renal
K-562 leukemia = tested on: K-562 leukemia
NCI-H226 lung = tested on: NCI-H226 lung

C[C@@H](NC(=O)c1ccc(F)cc1)c1ccc2c(c1)CCN2C(=O)C1CCOCC1
GI50 (LOX IMVI melanoma): > 100 µM | TGI (LOX IMVI melanoma): > 100 µM | GI50 (CCRF-CEM leukemia): > 100 µM | TGI (CCRF-CEM leukemia): > 100 µM | GI50 (OVCAR-3 ovarian): > 100 µM | TGI (OVCAR-3 ovarian): > 100 µM | GI50 (SK-MEL-2 melanoma): > 100 µM | TGI (SK-MEL-2 melanoma): > 100 µM | GI50 (HOP-92 NSCLC): > 100 µM | TGI (HOP-92 NSCLC): > 100 µM | GI50 (OVCAR-8 ovarian): > 100 µM | TGI (OVCAR-8 ovarian): > 100 µM | GI50 (HCT-15 colon): > 100 µM | TGI (HCT-15 colon): > 100 µM | GI50 (HCC-2998 colon): > 100 µM | TGI (HCC-2998 colon): > 100 µM | GI50 (CAKI-1 renal): > 100 µM | TGI (CAKI-1 renal): > 100 µM | GI50 (KM12 colon): > 100 µM | TGI (KM12 colon): > 100 µM | GI50 (HL-60(TB) leukemia): > 100 µM | TGI (HL-60(TB) leukemia): > 100 µM | GI50 (DU-145 prostate): > 100 µM | TGI (DU-145 prostate): > 100 µM | GI50 (HS 578T breast): > 100 µM | TGI (HS 578T breast): > 100 µM | GI50 (A549 NSCLC): > 100 µM | TGI (A549 NSCLC): > 100 µM | GI50 (OVCAR-4 ovarian): > 100 µM | TGI (OVCAR-4 ovarian): > 100 µM | GI50 (MCF7 breast): > 100 µM | TGI (MCF7 breast): > 100 µM | GI50 (PC-3 prostate): > 100 µM | TGI (PC-3 prostate): > 100 µM | GI50 (HT29 colon): > 100 µM | TGI (HT29 colon): > 100 µM | GI50 (SK-OV-3 ovarian): > 100 µM | TGI (SK-OV-3 ovarian): > 100 µM | GI50 (SF-268 CNS): > 100 µM | TGI (SF-268 CNS): > 100 µM | GI50 (COLO 205 colon): > 100 µM | TGI (COLO 205 colon): > 100 µM | GI50 (MDA-MB-231 breast): > 100 µM | TGI (MDA-MB-231 breast): > 100 µM | GI50 (SR leukemia): > 100 µM | TGI (SR leukemia): > 100 µM | GI50 (NCI-H522 lung): > 100 µM | TGI (NCI-H522 lung): > 100 µM | GI50 (SNB-75 CNS): 79.2 µM | TGI (SNB-75 CNS): > 100 µM | GI50 (SF-295 CNS): > 100 µM | TGI (SF-295 CNS): > 100 µM | GI50 (ACHN renal): > 100 µM | TGI (ACHN renal): > 100 µM | GI50 (NCI/ADR-RES ovarian): > 100 µM | TGI (NCI/ADR-RES ovarian): > 100 µM | GI50 (HCT-116 colon): > 100 µM | TGI (HCT-116 colon): > 100 µM | GI50 (IGROV1 ovarian): > 100 µM | TGI (IGROV1 ovarian): > 100 µM | GI50 (NCI-H23 lung): > 100 µM | TGI (NCI-H23 lung): > 100 µM | GI50 (MDA-MB-435): > 100 µM | TGI (MDA-MB-435): > 100 µM | GI50 (HOP-62 NSCLC): > 100 µM | TGI (HOP-62 NSCLC): > 100 µM | GI50 (T-47D breast): > 100 µM | TGI (T-47D breast): > 100 µM | GI50 (UACC-257 melanoma): > 100 µM | TGI (UACC-257 melanoma): > 100 µM | GI50 (RPMI-8226 leukemia): > 100 µM | TGI (RPMI-8226 leukemia): > 100 µM | GI50 (786-0 renal): > 100 µM | TGI (786-0 renal): > 100 µM | GI50 (OVCAR-5 ovarian): > 100 µM | TGI (OVCAR-5 ovarian): > 100 µM | GI50 (A498 renal): 17.1 µM | TGI (A498 renal): 88.5 µM | GI50 (M14 melanoma): > 100 µM | TGI (M14 melanoma): > 100 µM | GI50 (SF-539 CNS): > 100 µM | TGI (SF-539 CNS): > 100 µM | GI50 (SK-MEL-28 melanoma): > 100 µM | TGI (SK-MEL-28 melanoma): > 100 µM | GI50 (BT-549 breast): > 100 µM | TGI (BT-549 breast): > 100 µM | GI50 (SN12C renal): > 100 µM | TGI (SN12C renal): > 100 µM | GI50 (MALME-3M melanoma): > 100 µM | TGI (MALME-3M melanoma): > 100 µM | GI50 (SK-MEL-5 melanoma): > 100 µM | TGI (SK-MEL-5 melanoma): > 100 µM | GI50 (U251 CNS): > 100 µM | TGI (U251 CNS): > 100 µM | GI50 (NCI-H460 lung): > 100 µM | TGI (NCI-H460 lung): > 100 µM | GI50 (UO-31 renal): > 100 µM | TGI (UO-31 renal): > 100 µM | GI50 (EKVX NSCLC): > 100 µM | TGI (EKVX NSCLC): > 100 µM | GI50 (SW-620 colon): > 100 µM | TGI (SW-620 colon): > 100 µM | GI50 (MOLT-4 leukemia): > 100 µM | TGI (MOLT-4 leukemia): > 100 µM | GI50 (UACC-62 melanoma): 93.5 µM | TGI (UACC-62 melanoma): > 100 µM | GI50 (RXF 393 renal): > 100 µM | TGI (RXF 393 renal): > 100 µM | GI50 (K-562 leukemia): > 100 µM | TGI (K-562 leukemia): > 100 µM | GI50 (NCI-H226 lung): > 100 µM | TGI (NCI-H226 lung): > 100 µM
